Key:
Experiment in all cases: relative viability (nuclei count vs DMSO), 5 days (fraction); higher = more cells survive
[1] = compound: CCOc1cc2ncc(C#N)c(Nc3ccc(OCc4ccccn4)c(Cl)c3)c2cc1NC(=O)/C=C/CN(C)C [Neratinib] + Nc1nc2[nH]cc(CCc3ccc(C(=O)N[C@@H](CCC(=O)O)C(=O)O)cc3)c2c(=O)[nH]1 [Pemetrexed] (partner 0.2 µM)
Summary of the method: (§1)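 Relative viability divides the nuclei count in treated wells by that in vehicle wells. Lung cancer cell lines were seeded in 1536-well plates, dosed by pin tool the next day, and fixed and stained after 5 days in one step with final 0.05% Triton X-100, 1% formaldehyde and 1 ug/ml Hoechst. Dosing was a single drug or a fixed anchor-drug dose plus five library-drug doses (not always all listed) in √10 steps, and values are medians of duplicate plates imaged at 4×.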

[2] = compound: CCOc1cc2ncc(C#N)c(Nc3ccc(OCc4ccccn4)c(Cl)c3)c2cc1NC(=O)/C=C/CN(C)C [Neratinib] + CC1(C)CCC(c2ccc(Cl)cc2)=C(CN2CCN(c3ccc(C(=O)NS(=O)(=O)c4ccc(N[C@H](CCN5CCOCC5)CSc5ccccc5)c(S(=O)(=O)C(F)(F)F)c4)cc3)CC2)C1 [Navitoclax] (partner 0.5 µM)
Summary of the method: as §1

[3] = compound: CCOc1cc2ncc(C#N)c(Nc3ccc(OCc4ccccn4)c(Cl)c3)c2cc1NC(=O)/C=C/CN(C)C [Neratinib] + O=C(CCCCCCC(=O)Nc1ccccc1)NO [Vorinostat] (partner 1 µM)
Summary of the method: as §1

[4] = compound: CCOc1cc2ncc(C#N)c(Nc3ccc(OCc4ccccn4)c(Cl)c3)c2cc1NC(=O)/C=C/CN(C)C [Neratinib] + C[C@]1(O)C[C@@H](c2nc(-c3ccc4ccc(-c5ccccc5)nc4c3)c3c(N)nccn32)C1 [Linsitinib] (partner 1 µM)
Summary of the method: as §1

Row | Cell Line | relative viability ([1]; first compound 0.01 µM) | relative viability ([1]; first compound 0.03162 µM) | relative viability ([1]; first compound 0.1 µM) | relative viability ([1]; first compound 0.3162 µM) | relative viability ([1]; first compound 1 µM) | relative viability ([2]; first compound 0.01 µM) | relative viability ([2]; first compound 0.03162 µM) | relative viability ([2]; first compound 0.1 µM) | relative viability ([2]; first compound 0.3162 µM) | relative viability ([2]; first compound 1 µM) | relative viability ([3]; first compound 0.01 µM) | relative viability ([3]; first compound 0.03162 µM) | relative viability ([3]; first compound 0.1 µM) | relative viability ([3]; first compound 0.3162 µM) | relative viability ([3]; first compound 1 µM) | relative viability ([4]; first compound 0.01 µM) | relative viability ([4]; first compound 0.03162 µM) | relative viability ([4]; first compound 0.3162 µM) | relative viability ([4]; first compound 1 µM) | relative viability ([4]; first compound 0.1 µM)
1 | NCI-H1437 | 0.329 | 0.344 | 0.269 | 0.275 | 0.312 | 1.14 | 1.12 | 1.05 | 1 | 1.05 | 0.916 | 0.906 | 0.799 | 0.843 | 0.85 | 1.27 | 1.1 | 0.793 | 0.723 | –
2 | NCI-H1651 | 0.619 | 0.629 | 0.565 | 0.57 | 0.516 | 1.2 | 1.17 | 0.878 | 0.84 | 0.742 | 0.605 | 0.582 | 0.505 | 0.508 | 0.513 | 1.13 | 0.925 | 0.747 | 0.786 | 0.911
3 | NCI-H1666 | 0.856 | 0.867 | 0.746 | 0.652 | 0.725 | 0.971 | – | 0.685 | 0.311 | 0.347 | 1.14 | 1.08 | 0.901 | 0.879 | 0.87 | 0.876 | 0.654 | 0.372 | 0.361 | 0.591
4 | NCI-H1734 | 0.421 | 0.467 | 0.354 | 0.432 | 0.492 | 0.902 | 1.02 | 0.789 | 0.818 | 0.557 | 0.997 | 0.766 | 0.743 | 0.752 | 0.6 | 0.997 | 0.925 | 0.754 | 0.646 | 0.814
5 | NCI-H1755 | 0.496 | 0.496 | 0.379 | 0.563 | 0.417 | 1.06 | – | – | 1.02 | 0.469 | 0.828 | 0.695 | 0.658 | 0.916 | 0.794 | 1.04 | 0.988 | 1.05 | 0.775 | 0.911
6 | NCI-H1793 | 0.92 | 0.778 | 0.637 | 0.666 | 0.414 | 0.757 | 0.497 | 0.371 | 0.352 | 0.217 | 0.765 | 0.849 | 0.473 | 0.487 | 0.355 | 0.863 | 1.03 | 0.596 | 0.364 | 0.494
7 | NCI-H1915 | 0.495 | 0.495 | 0.44 | 0.412 | 0.516 | 0.764 | 0.862 | 0.757 | 0.736 | 0.744 | 0.6 | 0.553 | 0.507 | 0.439 | 0.545 | 1.11 | 1.13 | 1.09 | 0.874 | –
8 | NCI-H1944 | 0.642 | 0.563 | – | 0.555 | 0.439 | 1.03 | 1 | 0.871 | 0.814 | 0.677 | 0.657 | 0.544 | 0.474 | 0.501 | 0.456 | 1.28 | 1.08 | 0.645 | 0.435 | 0.93
9 | NCI-H1975 | 0.295 | 0.336 | 0.284 | 0.25 | 0.178 | 1.26 | 1.33 | 0.788 | 0.394 | 0.238 | 0.764 | 0.822 | 0.723 | 0.354 | 0.264 | 1.13 | 1.12 | 0.285 | 0.223 | 0.78
10 | NCI-H1993 | 0.398 | 0.543 | 0.533 | 0.564 | 0.486 | 0.911 | 0.986 | 0.815 | 0.651 | 0.574 | 1.07 | 0.795 | 0.423 | 0.676 | 0.574 | 0.833 | 0.659 | 0.648 | 0.838 | 0.71
11 | NCI-H2009 | 1.09 | – | 1.06 | 1.06 | 1.01 | 1.13 | 1.23 | 1.12 | 1.13 | 0.999 | 0.739 | 0.772 | 0.777 | 0.754 | 0.644 | 1.2 | 1.15 | 1.18 | – | 0.85
12 | NCI-H2023 | 0.251 | 0.221 | 0.21 | 0.221 | 0.212 | 0.987 | 1.04 | 0.909 | 0.943 | 0.699 | 0.937 | 0.532 | 0.495 | 0.602 | 0.375 | 0.658 | 0.675 | 0.446 | 0.303 | 0.465
13 | NCI-H2085 | 0.962 | 0.987 | 0.754 | 0.655 | 0.71 | 1.18 | 1.14 | – | 0.88 | 0.804 | 0.825 | – | 0.687 | 0.623 | 0.696 | 0.858 | 1.11 | 0.668 | 0.474 | 0.81
14 | NCI-H2087 | 0.634 | 0.74 | 0.655 | 0.694 | 0.548 | 1.04 | 0.896 | – | 1 | 0.444 | 0.783 | 0.566 | 0.538 | 0.711 | 0.573 | 0.951 | 0.949 | 0.765 | 0.615 | –
15 | NCI-H2126 | 0.659 | 0.638 | 0.623 | 0.616 | 0.404 | 0.861 | 0.831 | 0.682 | 0.748 | 0.35 | 0.776 | 0.79 | 0.706 | 0.574 | 0.379 | 0.693 | 0.719 | 0.654 | 0.38 | 0.581
16 | NCI-H2228 | 0.382 | 0.362 | 0.306 | 0.271 | 0.147 | 0.929 | 1.57 | 0.802 | 0.953 | 0.258 | 0.769 | 0.871 | 0.623 | 0.7 | 0.318 | 0.88 | 0.526 | 0.582 | 0.421 | 0.388
